Assay results from paper PMC9917184, “Synthesis and Biological Evaluation of Potential Oncoimmunomodulator Agents” (International Journal of Molecular Sciences, 2023).
Where two headings read alike, the source gives them in different places.

Experiments:
[1] = test system: Jurkat T cells; experiment: Jurkat T cell viability in co-culture with cancer cells (flow cytometry count); format: cell-based; conditions: Homo sapiens, 24 h, read-out: percentage of living Jurkat cells relative to non-treated co-cultures
Procedure: (§1) The effect of the synthesized compounds on tumor cell proliferation in the presence of PD-1-expressing Jurkat T cells was also studied. This assay was carried out, as in the previous experiments, in the HT29, MCF7, and A549 cell lines (see Table 4). Interferon γ-stimulated cancer cells were treated for 24 h with the compounds at 100 μM in presence of Jurkat T cells. Then, cells were counted using flow cytometry. The percentage of living cells relative to non-treated co-cultures (control) was established for both cancer and immune cells in every co-culture.
(§2) To study the effect of the compounds on the cell viability in co-culture with Jurkat T cells or THP-1 cells, 10^5 or 2 × 10^5 of the corresponding cancer cells line per well were seeded and incubated for 24 h, then the medium was changed by one cell culture medium supplemented with IFN-γ (10 ng/mL; human, Invitrogen®) and containing 5 × 10^5 or 10^5 Jurkat T cells or THP-1, respectively, per well and 100 µM of the corresponding compound or DMSO for the […] control. After 24 h/48 h of incubation, supernatants were collected to determine Jurkat T or THP-1 living cells, and on the other hand, corresponding cancer cells were collected with trypsin. Both types of suspension cells were fixed with 4% in PBS paraformaldehyde and counted by flow cytometry.

[2] = test system: membrane VEGFR-2; experiment: Membrane VEGFR-2 relative quantification by flow cytometry in cancer cells co-cultured with Jurkat T cells; format: cell-based, human; conditions: 100 μM, 24 h, relative to non-treated co-cultures
Procedure: (§3) We determined by flow cytometry the effect of these compounds on the expression of membrane PD-L1 in cancer cells when they were co-cultured with immune cells. Thus, interferon γ-stimulated cancer cells were treated for 24 h with the compounds at 100 μM in presence of Jurkat T cells. Then, cells were fixed and treated with anti-PD-L1 conjugated to AlexaFluor®647. We took advantage of the versatility of flow cytometry to simultaneously measure the expression of membrane VEGFR-2 by using anti-VEGFR-2 conjugated to fluorescein.
(§4) To study the effect of the compounds on every biological target in co-cultured cancer cell lines, the compounds were incubated for 24h as described before.
(§5) To detect membrane PD-L1 and VEGFR-2, after the cell treatments, they were collected, fixed with 4% in PBS paraformaldehyde, and stained with FITC Mouse monoclonal Anti-Human VEGFR-2 (ab184903) and Alexa Fluor® 647 Rabbit monoclonal Anti-PD-L1 (ab215251).

[3] = test system: A-549; experiment: A-549 cell viability in co-culture with Jurkat T cells (flow cytometry count); format: cell-based, human; conditions: 24 h; for viability at 100 µM: Homo sapiens, A549, A-549/Jurkat T co-culture, IFN-γ stimulated, read-out: percentage of living A-549 cells relative to non-treated co-cultures; for inhibition rate of A-549 cell viability: co-cultured with Jurkat T cells, 100 μM
Procedure: as §1, §2

[4] = test system: MCF-7; experiment: MCF-7 cell viability in co-culture with Jurkat T cells (flow cytometry count); format: cell-based, human; conditions: 24 h; for viability at 100 µM: Homo sapiens, MCF7, MCF-7/Jurkat T co-culture, IFN-γ stimulated, read-out: percentage of living MCF-7 cells relative to non-treated co-cultures
Procedure: as §1, §2

[5] = target: PD-L1 (Homo sapiens, UniProt Q9NZQ7); experiment: Total PD-L1 relative quantification by flow cytometry in cancer cell lines; format: cell-based; design: Alexa Fluor® 647 Rabbit monoclonal Anti-PD-L1 (ab215251); endogenous in cells; host or cells: HT-29; conditions: 24 h, total PD-L1 relative to negative control (DMSO)
Chain of PD-L1 (Q9NZQ7 19-290): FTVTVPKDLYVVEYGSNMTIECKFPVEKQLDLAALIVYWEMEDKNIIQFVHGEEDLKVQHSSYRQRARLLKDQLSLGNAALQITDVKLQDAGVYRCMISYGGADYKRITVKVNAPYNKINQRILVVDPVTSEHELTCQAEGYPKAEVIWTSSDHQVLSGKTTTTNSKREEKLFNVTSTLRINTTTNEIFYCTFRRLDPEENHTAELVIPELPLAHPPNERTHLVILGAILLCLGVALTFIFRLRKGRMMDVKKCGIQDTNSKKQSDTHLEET
Procedure: (§6) The effect of these triazole derivates on c-Myc and PD-L1 was measured in three different cancer cell lines (HT-29, MCF-7, A-549) by flow cytometry. Thus, cells were incubated for 24 h with the corresponding compound at a concentration of 100 μM. Dimethyl sulfoxide (DMSO)-treated cells were used as the negative control, and a PD-L1 inhibitor, BMS-8 [29, 31], was used as a reference control. After permeabilization and fixation, cells were treated with anti-PD-L1 conjugated to AlexaFluor®647 and anti-c-Myc conjugated to fluorescein to determine the amount of both targets related to the negative control. Table 1 show the results in terms of the percentage of the detected target in relation to the negative control. This assay was carried out on cancer cell lines HT-29, MCF-7, and A-549.
(§7) To study the effect of the compounds on every biological target in cancer cell lines, the compounds were used at a 100 µM dose.
(§8) For the assay, 10^5 cells per well were incubated for 24 h with the corresponding dose of the tested compound in a total volume of 500 μL of their growth media.
(§9) To detect total PD-L1 and c-Myc, after the cell treatments, they were collected and fixed with 4% in PBS paraformaldehyde. After fixation, a treatment with 0,5% in PBS Triton™ X-100 was performed, and finally, cells were stained with FITC Mouse monoclonal Anti-c-Myc (ab223913) and Alexa Fluor® 647 Rabbit monoclonal Anti-PD-L1 (ab215251).

[6] = test system: c-Myc; experiment: Total c-Myc relative quantification by flow cytometry in cancer cell lines; format: cell-based, human; conditions: 24 h
Procedure: as §6, §7, §8, §9

[7] = target: T1, membrane PD-L1 (Homo sapiens, UniProt Q9NZQ7); experiment: Membrane PD-L1 relative quantification by flow cytometry in cancer cells co-cultured with Jurkat T cells; format: cell-based; conditions: Jurkat, 24 h; for remaining activity at 100 µM: relative to non-treated co-cultures, read-out: % PDL1 (membrane); for inhibition at 100 µM: HT-29 co-cultured with Jurkat T cells, read-out: membrane PD-L1 inhibition rate
T1 construct: Alexa Fluor® 647 Rabbit monoclonal Anti-PD-L1 (ab215251); endogenous in cells; host or cells: HT-29, MCF-7, A-549 (A17: MCF-7 only; A14: IFN-gamma-stimulated cancer cells co-cultured with Jurkat T cells)
T1 sequence (Q9NZQ7 19-290): as above
Procedure: as §3, §4, §5

[8] = test system: HT-29; experiment: HT-29 cell viability in co-culture with Jurkat T cells (flow cytometry count); format: cell-based, human; conditions: 24 h; for viability at 100 µM: Homo sapiens, HT-29/Jurkat T co-culture, IFN-γ stimulated, read-out: percentage of living HT-29 cells relative to non-treated co-cultures
Procedure: as §1, §2

[9] = A549 co-cultured with Jurkat T cells
[10] = HT29 co-cultured with Jurkat T cells
[11] = MCF7 co-cultured with Jurkat T cells
[12] = A-549, 100 µM, relative to negative control (DMSO)
[13] = HT-29, 100 µM, detected target relative to negative control (DMSO)
[14] = MCF-7, 100 µM, relative to negative control (DMSO)
[15] = co-cultured with Jurkat T cells, 100 μM

SMILES	remaining activity at 100 µM ([5]; A549, A-549, 100 µM)	remaining activity at 100 µM ([5]; HT-29, 100 µM)	remaining activity at 100 µM ([5]; MCF7, MCF-7, 100 µM)	remaining activity at 100 µM [7, 9]	remaining activity at 100 µM [7, 10]	remaining activity at 100 µM [7, 11]	inhibition at 100 µM [7]	viability at 100 µM ([1]; A-549/Jurkat T co-culture)	viability at 100 µM ([1]; HT-29/Jurkat T co-culture)	viability at 100 µM ([1]; MCF-7/Jurkat T co-culture)	%VEGFR2 (membrane) [2, 9]	%VEGFR2 (membrane) [2, 10]	%VEGFR2 (membrane) [2, 11]	viability at 100 µM [3]	inhibition rate of A-549 cell viability [3]	viability at 100 µM [4]	% c-Myc [6, 12]	% c-Myc [6, 13]	% c-Myc [6, 14]	viability at 100 µM [8]	further results
COc1ccc(-c2cn(CCc3ccc(CCOC(c4ccccc4)(c4ccc(OC)cc4)c4ccc(OC)cc4)cc3)nn2)cc1 [Compound 9, 1-(4-(2-(bis(4-methoxyphenyl)(phenyl)methoxy)ethyl)phenethyl)-4-(4-methoxyphenyl)-1H-1,2,3-triazole]	92 ± 21%	57 ± 8%	89 ± 5%	82 ± 2%	63 ± 11%	40 ± 5%	40 to 50%	462 ± 99%	56 ± 18%	84 ± 17%	92 ± 3%	76 ± 13%	76 ± 10%	106 ± 1%	no activity	69 ± 9%	61 ± 3%	71 ± 10%	88 ± 4%	51 ± 17%	c-Myc inhibition rate ([6]; A-549, 100 μM): 40%
COc1ccc(-c2cn(CCc3ccc(CCO)cc3)nn2)cc1 [Compound 10, 2-(4-(2-(4-(4-methoxyphenyl)-1H-1,2,3-triazol-1-yl)ethyl)phenyl)ethan-1-ol]	62 ± 14%	82 ± 2%	114 ± 9%	84 ± 6%	126 ± 7%	48 ± 7%		100 ± 4%	120 ± 23%	148 ± 20%	107 ± 1%	94 ± 6%	105 ± 3%	103 ± 4%	no activity	94 ± 2%	126 ± 2%	83 ± 8%	91 ± 6%	145 ± 16%	
COc1ccc(C(OCCc2ccc(CCn3cc(-c4cccc(OC)c4)nn3)cc2)(c2ccccc2)c2ccc(OC)cc2)cc1 [Compound 11, 1-(4-(2-(bis(4-methoxyphenyl)(phenyl)methoxy)ethyl)phenethyl)-4-(3-methoxyphenyl)-1H-1,2,3-triazole]	104 ± 1%	48 ± 4%	108 ± 7%	94 ± 1%	104 ± 14%	48 ± 7%		511 ± 86%	76 ± 52%	79 ± 13%	85 ± 1%	79 ± 10%	92 ± 10%	102 ± 4%		50 ± 1%	55 ± 4%	50 ± 3%	81 ± 2%	65 ± 6%	inhibition rate of MCF-7 cell viability [4, 15]: half; c-Myc inhibition ([6]; HT-29, 100 μM): 50%

Now from value to molecule, other results behind:

remaining activity at 100 µM ([5]; A549, A-549, 100 µM)	remaining activity at 100 µM ([5]; HT-29, 100 µM)	remaining activity at 100 µM ([5]; MCF7, MCF-7, 100 µM)	remaining activity at 100 µM [7, 9]	remaining activity at 100 µM [7, 10]	remaining activity at 100 µM [7, 11]	inhibition at 100 µM [7]	SMILES	viability at 100 µM ([1]; A-549/Jurkat T co-culture)	viability at 100 µM ([1]; HT-29/Jurkat T co-culture)	viability at 100 µM ([1]; MCF-7/Jurkat T co-culture)	%VEGFR2 (membrane) [2, 9]	%VEGFR2 (membrane) [2, 10]	%VEGFR2 (membrane) [2, 11]	viability at 100 µM [3]	inhibition rate of A-549 cell viability [3]	viability at 100 µM [4]	% c-Myc [6, 12]	% c-Myc [6, 13]	% c-Myc [6, 14]	viability at 100 µM [8]	further results
44 ± 8%	115 ± 5%	81 ± 1%	84 ± 8%	58 ± 6%	46 ± 9%	40 to 50%	OCCc1ccc(CCn2cc(-c3ccccc3Br)nn2)cc1 [Compound 8, 2-(4-(2-(4-(2-bromophenyl)-1H-1,2,3-triazol-1-yl)ethyl)phenyl)ethan-1-ol]	88 ± 34%	95 ± 5%	164 ± 9%	104 ± 5%	97 ± 4%	108 ± 6%	72 ± 9%	around 30%	49 ± 10%	48 ± 7%	88 ± 2%	92 ± 6%	97 ± 10%	
67 ± 8%	157 ± 6%	88 ± 1%	77 ± 3%	88 ± 5%	41 ± 2%		COc1cccc(-c2cn(CCc3ccc(CCO)cc3)nn2)c1 [Compound 12, 2-(4-(2-(4-(3-methoxyphenyl)-1H-1,2,3-triazol-1-yl)ethyl)phenyl)ethan-1-ol]	83 ± 6%	104 ± 5%	123 ± 11%	99 ± 6%	113 ± 4%	103 ± 8%	86 ± 2%	around 30%	78 ± 4%	113 ± 9%	84 ± 2%	81 ± 4%	60 ± 3%	inhibition rate of HT-29 cell viability [8, 15]: around 40%
